Measurements reported in patent US9102648B1, “Bioavailable diacylhydrazine ligands for modulating the expression of exogenous genes via an ecdysone receptor complex” (Intrexon Corporation, priority 2003, dated 2015).
Read-outs that look alike come from different tables or passages of the source.

Target: GAL4 DBD (1-147)-CfEcR(DEF)/VP16AD-βRXREF-LmUSPEF (Choristoneura fumiferana, UniProt O77240)
Experiment: cell-based
Conditions: for Fold Induction, 27-63 Assay, 3.3 uM: 3.3 uM ligand; for Fold Induction, 27-63 Assay, 3.3 uM / Fold Induction, 27-63 Assay, 33 uM: RLU ligand treated / RLU DMSO treated cells; for Fold Induction, 27-63 Assay, 33 uM: 33 uM ligand; for 27-63 assay Rel Max FI: maximum fold induction at any concentration relative to that of GS-E ligand, CHO 27-63 cells; for fold induction at 33 µM: read-out: Fold Induction, 27-63 Assay, 33 uM
Source text: GAL4 DBD (1-147)-CfEcR(DEF)/VP16AD-βRXREF-LmUSPEF:
The wild-type D, E, and F domains from spruce budworm Choristoneura fumiferana EcR (“CfEcR-DEF”; SEQ ID NO: 1) were fused to a GAL4 DNA binding domain (“Gal4DBD1-147”; SEQ ID NO: 2) and placed under the control of a phosphoglycerate kinase promoter (“PGK”; SEQ ID NO: 3). Helices 1 through 8 of the EF domains from Homo sapiens RXRβ (“HsRXRβ-EF”; nucleotides 1-465 of SEQ ID NO: 4) and helices 9 through 12 of the EF domains of Locusta migratoria Ultraspiracle Protein (“LmUSP-EF”; nucleotides 403-630 of SEQ ID NO: 5) were fused to the transactivation domain from VP16 (“VP16AD”; SEQ ID NO: 6) and placed under the control of an elongation factor-1α promoter (“EF-1α”; SEQ ID NO: 7). Five consensus GAL4 response element binding sites (“5XGAL4RE”; comprising 5 copies of a GAL4RE comprising SEQ ID NO: 8) were fused to a synthetic TATA minimal promoter (SEQ ID NO: 9) and placed upstream of the luciferase reporter gene (SEQ ID NO: 10).
CHO cells were transiently transfected with transcription cassettes for GAL4 DBD (1-147) CJEcR(DEF) and for VP16AD βRXREF-LmUSPEF controlled by ubiquitously active cellular promoters (PGK and EF-la, respectively) on a single plasmid. Stably transfected cells were selected by Zeocin resistance. Individually isolated CHO cell clones were transiently transfected with a GAL4 RE-luciferase reporter (pFR Luc). 27-63 clone was selected using Hygromycin.
Cells were trypsinized and diluted to a concentration of 2.5×10^4 cells mL. 100 μL of cell suspension was placed in each well of a 96 well plate and incubated at 37° C. under 5% CO2 for 24 h. Ligand stock solutions were prepared in DMSO and diluted 300 fold for all treatments. Dose response testing consisted of 8 concentrations ranging from […] to 0.01 μM.
Luciferase reporter gene expression was measured 48 h after cell treatment using Bright-Glo™ Luciferase Assay System from Promega (E2650). Luminescence was detected at room temperature using a Dynex MLX microtiter plate luminometer.
Each assay was conducted in two separate wells, and the two values were averaged. Fold inductions were calculated by dividing relative light units (“RLU”) in ligand treated cells with RLU in DMSO treated cells. EC50s were calculated from dose response data using a three-parameter logistic model.

[1] = read-out: 27-63 assay EC50, CHO 27-63 stable cell line, luciferase reporter, average of two wells

| SMILES | Fold Induction, 27-63 Assay, 3.3 uM (average of two wells) | Fold Induction, 27-63 Assay, 33 uM (average of two wells) | 27-63 assay Rel Max FI | EC50 [1] | fold induction at 33 µM | EC50 |
| --- | --- | --- | --- | --- | --- | --- |
| CCc1ccc(C(=O)NN(C(=O)c2cccnc2OC)C(CC)C(C)(C)C)cc1 (centres unmarked) [RG-115837] | 1474 | 1156 | 0.569 | 1110 nM |  |  |
| CCCCC(N(NC(=O)c1ccc(CC)cc1)C(=O)c1cccnc1OC)C(C)(C)C (centres unmarked) [RG-115842] | 1269 | 447 | 0.524 | 1200 nM |  |  |
| CCCC(N(NC(=O)c1ccc2c(c1CC)OCCO2)C(=O)c1cc(OC)c(C)c(OC)c1)C(C)(C)C (centres unmarked) [RG-115867, 3,5-Dimethoxy-4-methyl-benzoic acid N-(1-tert-butyl-butyl)-N′-(5-ethyl-2,3-dihydro-benzo[1,4]dioxine-6-carbonyl)-hydrazide] |  |  |  |  | 654 |  |
| COc1cccc(C(=O)NN(C(=O)c2ccc(C(F)(F)F)nc2OC)C(C)(C)C)c1C [RG-115834] | 1900 | 1837 | 0.733 | 1170 nM |  |  |
| COc1cccc(C(=O)NN(C(=O)c2ccc(C(F)(F)F)n(C)c2=O)C(C)(C)C)c1C [RG-115835] | 3 | 1895 | 0.731 | 20000 nM |  |  |
| COc1cccc(C(=O)NN(C(=O)c2ccnnc2)C(C)(C)C)c1C [RG-115862] | 1 | 243 | 0.048 | > 33000 nM |  |  |
| CCCCC(N(NC(=O)c1ccc(CC)cc1)C(=O)c1cc(C)cc(C)c1)C(C)(C)C (centres unmarked) [RG-115840] | 1612 | 263 | 0.776 | 110 nM |  |  |
| CCc1ccc(C(=O)NN(C(=O)c2cccnc2OC)C(c2ccccc2)C(C)(C)C)cc1 (centres unmarked) [RG-115848] | 1346 | 1156 | 0.494 | 1290 nM |  |  |
| CCCCC(N(NC(=O)c1cccc(OC)c1C)C(=O)c1cc(C)cc(C)c1)C(C)(C)C (centres unmarked) [RG-115851, 3,5-dimethyl-benzoic acid N-(1-tert-butyl-pentyl)-N′-(3-methoxy-2-methyl-benzoyl)-hydrazide] |  |  | 1 |  |  | 20 nM |
| CCc1ccc(C(=O)NN(C(=O)c2cc(C)cc(C)c2)C(CC)C(C)(C)C)cc1 (centres unmarked) [RG-115836] | 1822 | 823 | 0.808 | 98 nM |  |  |
| CCc1c(C(=O)NN(C(=O)c2cc(OC)c(C)c(OC)c2)C(CC)C(C)(C)C)ccc2c1OCCO2 (centres unmarked) [RG-115859, 3,5-Dimethoxy-4-methyl-benzoic acid N′-(5-ethyl-2,3-dihydro-benzo[1,4]dioxine-6-carbonyl)-N-(1-ethyl-2,2-dimethyl-propyl)-hydrazide] |  |  | 1.218 |  | 1060 | 7 nM |
| CCc1ccc(C(=O)NN(C(=O)c2cc(C)cc(C)c2)C(c2ccccc2)C(C)(C)C)cc1 (centres unmarked) [RG-115846] | 1643 | 645 | 0.846 | 95 nM |  |  |
| COc1cc(C(=O)N(NC(=O)c2cccc(OC)c2C)C(C)(C)C)c(OC)nn1 [RG-115850] | 1 | 23 | 0.001 | > 33000 nM |  |  |
| COc1cc(C(=O)N(NC(=O)c2cccc(OC)c2C)C(C)(C)C)c(=O)[nH]n1 [RG-115863] | 1 | 804 | 0.154 | > 33000 nM |  |  |
| CCCC(N(NC(=O)c1ccc2c(c1CC)OCCO2)C(=O)c1cc(C)cc(C)c1)C(C)(C)C (centres unmarked) [RG-115866, 3,5-Dimethyl-benzoic acid N-(1-tert-butyl-butyl)-N′-(5-ethyl-2,3-dihydro-benzo[1,4]dioxine-6-carbonyl)-hydrazide] |  |  | 0.999 |  | 3 | 10 nM |
| CCCCC(N(NC(=O)c1cccc(OC)c1C)C(=O)c1cc(OC)c(C)c(OC)c1)C(C)(C)C (centres unmarked) [RG-115852, 3,5-dimethoxy-4-methyl-benzoic acid N-(1-tert-butyl-pentyl)-N′-(3-methoxy-2-methyl-benzoyl)-hydrazide] |  |  | 1 |  |  | 70 nM |
| COc1cc(C(=O)N(NC(=O)c2cccc(OC)c2C)C(C)(C)C)nc(OC)n1 [RG-115849] | 1 | 231 | 0.007 | > 33000 nM |  |  |
| COc1cccc(C(=O)NN(C(=O)c2cc(Cl)nnc2Cl)C(C)(C)C)c1C [RG-115861] | 8 | 593 | 0.215 | 4310 nM |  |  |
| CCc1ccc(C(=O)NN(C(=O)c2cc(OC)c(C)c(OC)c2)C(c2ccccc2)C(C)(C)C)cc1 (racemic) [RG-115847] | 2729 | 848 | 1.120 | 1100 nM |  |  |
| CCCC(N(NC(=O)c1ccc2c(c1C)OCCO2)C(=O)c1cc(OC)c(C)c(OC)c1)C(C)(C)C (centres unmarked) [RG-115865, 3,5-Dimethoxy-4-methyl-benzoic acid N-(1-tert-butyl-butyl)-N′-(5-methyl-2,3-dihydrobenzo[1,4]dioxine-6-carbonyl)-hydrazide] |  |  | 1.246 |  | 76 | 10 nM |
| CCCCC(N(NC(=O)c1ccc(CC)cc1)C(=O)c1cc(OC)c(C)c(OC)c1)C(C)(C)C (centres unmarked) [RG-115841] | 1407 | 437 | 0.610 | 2020 nM |  |  |
